Earlier results on 2 compounds are cited in patent publication US5401490A, “Markers of tissue hypoxia” (priority 1989, dated 1995).

One data set has as its system EMT-6 cells. Particulars: 50 μM comparison, previously determined value; cited from earlier work.
For data set [1] the following is noted: cited from earlier work.
The test system of data set [2] is hypoxic cell. Conditions: in vitro; cited from earlier work.
The test system of data set [3] is hypoxic cell. Conditions: in vitro; cited from earlier work. This is another data set of the same source.
The next data set concerns EMT-6 tumors. Particulars: BALB/C mice; cited from earlier work.
The next data set deals with V-79 hamster cells. Particulars: hypoxic in vitro; cited from earlier work.
Another data set relates to EMT-6 murine tumor cells. Conditions: hypoxic in vitro; cited from earlier work.

SMILES strings stand for the structures.

Take `O=[N+]([O-])c1nccn1C1OC(CI)C(O)C1O` (centres unmarked) [IAZR, (1-5'-iodo-5'deoxyribofuranosyl)-2-nitroimidazole]: the “sensitizer enhancement ratio (SER)” value in the data set with EMT-6 cells is given as 1.6. For the same compound, the “metabolic deiodination in vivo” value in data set [1] was “subject to metabolic deiodination”. Moreover, the “hypoxic cell toxicity compared with MISO” value in the data set on hypoxic cell [2] was “greater hypoxic cell toxicity”. The “rates of binding compared with MISO” value in the data set on hypoxic cell [3] is recorded as “rates of binding than MISO”.
`COCC(O)Cn1ccnc1[N+](=O)[O-]` (centres unmarked) [MISO, misonidazole]: the “binding to EMT-6 tumors in vivo” value in the data set with EMT-6 tumors was “selectively bound”. Moreover, the “sensitizer enhancement ratio (SER)” value in the data set with EMT-6 cells is 1.2. Moreover, the “binding to the macromolecular fraction” value in the data set on V-79 hamster cells and in the data set with EMT-6 murine tumor cells was “selectively bound to the macromolecular fraction” throughout.
